Data on 11 molecules can be found in US20070287672A1, “Macromolecular Gsh-Activiated Glyoxylase I Inhibitors” (priority 2004, published 2007).

SMILES strings stand for the structures.

The test system of data set [1] is murine leukemia L1210 cells. The settings on record: cited from earlier work; for IC50: diethyl ester prodrugs, after 72 hours of incubation, read-out: IC50, growth inhibition of L1210 cells in culture.
The target of data set [2] is T1, bovine liver GlxII (Bos taurus, UniProt Q3B7M2).
T1 construct: host or cells: bovine liver
The settings on record: cited from earlier work.

The test system of data set [3] is B16 melanotic melanoma. Particulars: intravenous administration, tumor-bearing mice; cited from earlier work.
The test system of data set [4] is HT29 human colon tumors. Particulars: intravenous administration, tumor-bearing mice; cited from earlier work.
The conditions of data set [5]: intravenous administration, tumor-bearing mice; cited from earlier work.
In data set [6] the test system is PC3 prostate tumors. Particulars: intravenous administration, tumor-bearing mice; cited from earlier work.
For data set [7] the following is noted: potassium phosphate buffer, 25° C., cited from earlier work.
The subject of data set [8] is Murine B16 melanotic melanoma. Nature of the data set: In vitro cytotoxicity, growth inhibition of B16 melanotic melanoma. Format: cell-based. The settings on record: 72 hours. The protocol: Murine B16 melanotic melanoma was obtained from the DCT Tumor Repository (NCI-Cancer Research and Development Center, Frederick, Md.) and was maintained in RPMI 1640 medium containing L-glutamate (Gibco BRL, Gaithersburg, Md.), supplemented with 10% heat-inactivated fetal calf serum and gentamycin (10 μg/mL), under 37° C. humidified air containing 5% CO2. Under these conditions B16 cells have a doubling time of about 26 hours. For the toxicity studies, cells in logarithmic growth were introduced into 24 well plates at a density of 2×10^4 cells/ml in the absence and presence of drug spanning the IC50 values.
After 72 hours, the cells were washed with Hank's balanced salt solution without Ca^2+, treated with trypsin for 10 minutes at 37° C., concentrated by centrifugation and cell densities determined with a Coulter Counter. Cell viabilities were determined by the trypan blue exclusion method (Kaltenbach et al, Exp. Cell. Res. 15:112-117 (1958)).
Reported IC50 values (mean ±standard deviation of triplicate determinations carried out in three separate assays on different days) were calculated using the Hill equation and the program ADAPT (D'Argenio and Schumitzky, Comput. Methods Programs Biomed. 9:115-134 (1979)).

Data set [9] relates to several different tumor cell lines. Particulars: in vitro; cited from earlier work.

A word on the IC50: it is the point on the concentration scale where inhibition reaches its midpoint. Take `CCOC(=O)CNC(=O)C(CSC(=O)N(O)c1ccc(Br)cc1)NC(=O)CCC(N)C(=O)OCC` (centres unmarked) [BHG(Et)2]: in data set [1], the IC50 was 16 µM.

As for `N[C@@H](CCC(=O)N[C@@H](CSC(=O)N(O)c1ccc(Br)cc1)C(=O)NCC(=O)O)C(=O)O` [BHG, S—(N-p-bromophenyl-N-hydroxycarbamoyl)glutathione], the “substrate for bovine liver GlxII” value in data set [2] is recorded as “substrates for bovine liver GlxII”.

Turning to `CCOC(=O)CNC(=O)[C@H](CSC(=O)N(O)c1ccc(Cl)cc1)NC(=O)CC[C@H](N)C(=O)OCC` [CHG(Et)2], in data set [3], the “inhibition of tumor growth, B16 melanotic melanoma” value is recorded as “inhibits the growth”. Besides, the “inhibition of tumor growth, HT29 human colon tumors” value in data set [4] is “inhibits the growth”. Besides, the IC50 in data set [1] is 5 µM. Besides, the “toxicity to L1210 cells versus normal splenic lymphocytes” value in data set [1] (in culture) is reported as “significantly more toxic to murine leukemia L1210 cells than to normal splenic lymphocytes”. In data set [5], the “side effects in short term efficacy studies” value is recorded as “did not detect any significant side effects” and the “tissue distribution of the prodrug” value was “appearance of the prodrug in all major organs”. Moreover, the “inhibition of tumor growth, PC3 prostate tumors” value in data set [6] was “inhibits the growth”.

As to `N[C@@H](CCC(=O)N[C@@H](CSC(=O)N(O)c1ccc(Cl)cc1)C(=O)NCC(=O)O)C(=O)O` [CHG, S—(N-p-chlorophenyl-N-hydroxycarbamoyl)glutathione], the “substrate for bovine liver GlxII” value in [2] is “substrates for bovine liver GlxII”.

Take `CC[S+]([O-])C(=O)N(O)c1ccc(Cl)cc1` (centres unmarked) [Compound 2, S—(N-4-chlorophenyl-N-hydroxycarbamoyl)ethyl sulfoxide]: in data set [7] (0.1 M (pH 7.5)), the “rate constant k for reaction of GSH with the simple sulfoxide” value is 30.7 ± 1.2 M⁻¹ s⁻¹. The “IC50 value relative to that of HPMA-8-sulfoxide (P1), fold lower” value in data set [8] is recorded as “five to ten-fold lower”. Also, the “cytostatic and cytotoxic activity on tumor cell lines” value in data set [9] is “cytostatic and cytotoxic”.

As for `CCC[S+]([O-])C(=O)N(O)c1ccc(Cl)cc1` (centres unmarked) [Compound 2a, S—(N-4-Chlorophenyl-N-hydroxycarbamoyl)propyl sulfoxide], the “IC50 value relative to that of HPMA-8-sulfoxide (P1), fold lower” value in data set [8] is recorded as “five to ten-fold lower”.

On to `CCCC[S+]([O-])C(=O)N(O)c1ccc(Cl)cc1` (centres unmarked) [Compound 2b, S—(N-4-Chlorophenyl-N-hydroxycarbamoyl)butyl sulfoxide], for which the “IC50 value relative to that of HPMA-8-sulfoxide (P1), fold lower” value in data set [8] is on record as “five to ten-fold lower”.

For `C/C=C/C(=O)OCC1=CCCCC1=O` [Compound 3, 2-crotonyloxymethyl-2-cyclohexenone], the “rate constant k for reaction of GSH with the crotonate ester” value in data set [7] (0.1 M (pH 6.5)) was 1.13 ± 0.017 M⁻¹ s⁻¹. Further, the “IC50 value relative to that of HPMA-7 (P4), fold lower” value in [8] was “over 7000 fold”.

As to `CCOC(=O)CNC(=O)C(CSC(=O)N(O)c1ccccc1)NC(=O)CCC(N)C(=O)OCC` (centres unmarked) [PHG(Et)2], the IC50 in [1] was 63 µM.

With `CN(O)C(=O)SC[C@H](NC(=O)CC[C@H](N)C(=O)O)C(=O)NCC(=O)O` [S—(N-methyl-N-hydroxycarbamoyl)glutathione], the “substrate for bovine liver GlxII” value in data set [2] is “substrates for bovine liver GlxII”.

In the case of `N[C@@H](CCC(=O)N[C@@H](CSC(=O)N(O)c1ccccc1)C(=O)NCC(=O)O)C(=O)O` [S—(N-phenyl-N-hydroxycarbamoyl)glutathione], in data set [2], the “substrate for bovine liver GlxII” value is on record as “substrates for bovine liver GlxII”.
